Assay results from PubChem BioAssay (NCI).
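Interpolation was linear, between the two tested concentrations surrounding the appropriate level; five concentrations were tested over 48 hours in 96-well plates. At the GI50, growth is halved. TGI denotes the concentration required for complete inhibition of growth.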

Experiments:
Assay in all cases: DTP human tumour cell line panel, 48 h
MOLT-4 leukemia = system: MOLT-4 leukemia
RXF 393 renal = system: RXF 393 renal
SN12C renal = system: SN12C renal
HT29 colon = system: HT29 colon
EKVX NSCLC = system: EKVX NSCLC
SK-MEL-28 melanoma = system: SK-MEL-28 melanoma
U251 CNS = system: U251 CNS
CAKI-1 renal = system: CAKI-1 renal
DU-145 prostate = system: DU-145 prostate
UO-31 renal = system: UO-31 renal
OVCAR-8 ovarian = system: OVCAR-8 ovarian
TK-10 renal = system: TK-10 renal
NCI/ADR-RES ovarian = system: NCI/ADR-RES ovarian
OVCAR-4 ovarian = system: OVCAR-4 ovarian
LOX IMVI melanoma = system: LOX IMVI melanoma
HOP-92 NSCLC = system: HOP-92 NSCLC
MALME-3M melanoma = system: MALME-3M melanoma
BT-549 breast = system: BT-549 breast
SNB-75 CNS = system: SNB-75 CNS
T-47D breast = system: T-47D breast
NCI-H460 lung = system: NCI-H460 lung
RPMI-8226 leukemia = system: RPMI-8226 leukemia
SK-MEL-5 melanoma = system: SK-MEL-5 melanoma
UACC-257 melanoma = system: UACC-257 melanoma
HS 578T breast = system: HS 578T breast
SK-MEL-2 melanoma = system: SK-MEL-2 melanoma
MCF7 breast = system: MCF7 breast
HL-60(TB) leukemia = system: HL-60(TB) leukemia

Compound: COc1ccc(/C=C2/CCc3cc4ccc(OC)cc4[o+]c32)c(O)c1
- GI50 (MOLT-4 leukemia): 3.71 µM
- TGI (MOLT-4 leukemia): > 100 µM
- GI50 (RXF 393 renal): 7.08 µM
- TGI (RXF 393 renal): 24.6 µM
- GI50 (SN12C renal): 2.51 µM
- TGI (SN12C renal): 7.93 µM
- GI50 (HT29 colon): 2.12 µM
- TGI (HT29 colon): 4.67 µM
- GI50 (EKVX NSCLC): 12.5 µM
- TGI (EKVX NSCLC): 26.8 µM
- GI50 (SK-MEL-28 melanoma): 2.3 µM
- TGI (SK-MEL-28 melanoma): 5.62 µM
- GI50 (U251 CNS): 2.3 µM
- TGI (U251 CNS): 5.57 µM
- GI50 (CAKI-1 renal): 10.7 µM
- TGI (CAKI-1 renal): 22.5 µM
- GI50 (DU-145 prostate): 8.15 µM
- TGI (DU-145 prostate): 20.5 µM
- GI50 (UO-31 renal): 2.39 µM
- TGI (UO-31 renal): 8.04 µM
- GI50 (OVCAR-8 ovarian): 2.27 µM
- TGI (OVCAR-8 ovarian): 6.13 µM
- GI50 (TK-10 renal): 11.7 µM
- TGI (TK-10 renal): 24.6 µM
- GI50 (NCI/ADR-RES ovarian): 4.16 µM
- TGI (NCI/ADR-RES ovarian): 50.6 µM
- GI50 (OVCAR-4 ovarian): 5.45 µM
- TGI (OVCAR-4 ovarian): 20.6 µM
- GI50 (LOX IMVI melanoma): 2.12 µM
- TGI (LOX IMVI melanoma): 5.02 µM
- GI50 (HOP-92 NSCLC): 11.7 µM
- TGI (HOP-92 NSCLC): 29.1 µM
- GI50 (MALME-3M melanoma): 3.08 µM
- TGI (MALME-3M melanoma): 11.7 µM
- GI50 (BT-549 breast): 12.1 µM
- TGI (BT-549 breast): 31.7 µM
- GI50 (SNB-75 CNS): 12.9 µM
- TGI (SNB-75 CNS): 27.9 µM
- GI50 (T-47D breast): 3.04 µM
- TGI (T-47D breast): 22.1 µM
- GI50 (NCI-H460 lung): 2.8 µM
- TGI (NCI-H460 lung): 9.74 µM
- GI50 (RPMI-8226 leukemia): 3.17 µM
- TGI (RPMI-8226 leukemia): 12.9 µM
- GI50 (SK-MEL-5 melanoma): 14 µM
- TGI (SK-MEL-5 melanoma): 41.1 µM
- GI50 (UACC-257 melanoma): 15.8 µM
- TGI (UACC-257 melanoma): 32 µM
- GI50 (HS 578T breast): 4.28 µM
- TGI (HS 578T breast): 34.5 µM
- GI50 (SK-MEL-2 melanoma): 11.8 µM
- TGI (SK-MEL-2 melanoma): 25.3 µM
- GI50 (MCF7 breast): 4.31 µM
- TGI (MCF7 breast): 22 µM
- GI50 (HL-60(TB) leukemia): 4.96 µM
- TGI (HL-60(TB) leukemia): 61.4 µM
